Data from ChEMBL document CHEMBL1134304, “Discovery of novel p-arylthio cinnamides as antagonists of leukocyte function-associated antigen-1/intercellular adhesion molecule-1 interaction. 4. Structure-activity relationship of substituents on the benzene ring of the cinnamide” (J Med Chem, 2001).

Experiments:
[1] = target: T1, Integrin alpha-L (Homo sapiens, UniProt P20701); assay: Inhibition of intercellular adhesion molecule-1 (ICAM-1) binding to recombinant LFA-1, range(760-2620)
T1 sequence (P20701 whole entry): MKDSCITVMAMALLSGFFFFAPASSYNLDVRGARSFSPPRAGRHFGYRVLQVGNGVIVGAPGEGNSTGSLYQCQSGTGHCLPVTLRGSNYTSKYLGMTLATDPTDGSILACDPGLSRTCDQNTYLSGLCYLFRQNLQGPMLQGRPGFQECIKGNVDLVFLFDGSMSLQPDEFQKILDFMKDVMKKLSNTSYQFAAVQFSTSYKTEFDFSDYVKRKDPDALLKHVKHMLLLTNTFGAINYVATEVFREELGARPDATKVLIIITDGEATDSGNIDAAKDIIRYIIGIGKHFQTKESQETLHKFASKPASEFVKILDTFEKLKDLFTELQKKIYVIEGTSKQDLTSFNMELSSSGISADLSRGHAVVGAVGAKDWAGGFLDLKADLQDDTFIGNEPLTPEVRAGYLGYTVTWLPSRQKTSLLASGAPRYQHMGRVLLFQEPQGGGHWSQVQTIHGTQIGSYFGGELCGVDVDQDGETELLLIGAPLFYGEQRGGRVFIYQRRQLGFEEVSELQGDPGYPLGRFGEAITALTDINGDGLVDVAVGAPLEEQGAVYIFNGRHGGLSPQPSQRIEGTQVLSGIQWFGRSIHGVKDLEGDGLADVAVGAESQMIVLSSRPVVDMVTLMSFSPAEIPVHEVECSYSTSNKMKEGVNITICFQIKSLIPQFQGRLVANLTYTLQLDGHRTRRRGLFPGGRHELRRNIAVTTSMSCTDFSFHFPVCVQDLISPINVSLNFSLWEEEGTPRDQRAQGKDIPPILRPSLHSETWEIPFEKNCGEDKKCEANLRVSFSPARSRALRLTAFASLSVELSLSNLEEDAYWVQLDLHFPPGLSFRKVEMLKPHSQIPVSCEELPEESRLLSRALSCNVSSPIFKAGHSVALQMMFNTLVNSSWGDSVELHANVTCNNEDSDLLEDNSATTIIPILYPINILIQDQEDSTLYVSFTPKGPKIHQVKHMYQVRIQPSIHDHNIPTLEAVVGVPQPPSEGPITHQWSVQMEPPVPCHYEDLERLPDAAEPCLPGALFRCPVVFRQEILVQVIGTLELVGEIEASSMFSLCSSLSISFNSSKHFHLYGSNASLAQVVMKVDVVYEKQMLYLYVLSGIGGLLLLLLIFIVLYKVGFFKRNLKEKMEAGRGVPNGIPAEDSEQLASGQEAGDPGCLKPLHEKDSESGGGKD

[2] = target: T2, Intercellular adhesion molecule (ICAM-1), Integrin alpha-L/beta-2 (Homo sapiens, UniProt P05107+P20701); assay: Inhibition of LFA-1 mediated JY-8 cell adhesion to ICAM-1; format: functional, cell-based
T2 sequence (P05362 whole entry, one chain of several, further chain): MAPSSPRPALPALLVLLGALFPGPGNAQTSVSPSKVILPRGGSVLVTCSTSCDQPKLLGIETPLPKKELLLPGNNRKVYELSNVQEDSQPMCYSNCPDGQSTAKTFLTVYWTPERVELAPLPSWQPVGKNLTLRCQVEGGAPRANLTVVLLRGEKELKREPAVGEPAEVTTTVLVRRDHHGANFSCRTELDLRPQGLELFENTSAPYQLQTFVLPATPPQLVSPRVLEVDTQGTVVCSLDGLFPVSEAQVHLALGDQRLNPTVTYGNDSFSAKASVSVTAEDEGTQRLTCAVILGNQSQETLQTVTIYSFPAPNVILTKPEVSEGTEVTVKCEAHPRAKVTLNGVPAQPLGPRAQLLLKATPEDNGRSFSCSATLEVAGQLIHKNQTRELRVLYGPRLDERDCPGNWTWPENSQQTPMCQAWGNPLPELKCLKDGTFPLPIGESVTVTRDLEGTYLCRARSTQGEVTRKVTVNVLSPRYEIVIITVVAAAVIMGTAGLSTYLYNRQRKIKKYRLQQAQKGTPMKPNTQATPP
T2 sequence (P05107 whole entry, one chain of several): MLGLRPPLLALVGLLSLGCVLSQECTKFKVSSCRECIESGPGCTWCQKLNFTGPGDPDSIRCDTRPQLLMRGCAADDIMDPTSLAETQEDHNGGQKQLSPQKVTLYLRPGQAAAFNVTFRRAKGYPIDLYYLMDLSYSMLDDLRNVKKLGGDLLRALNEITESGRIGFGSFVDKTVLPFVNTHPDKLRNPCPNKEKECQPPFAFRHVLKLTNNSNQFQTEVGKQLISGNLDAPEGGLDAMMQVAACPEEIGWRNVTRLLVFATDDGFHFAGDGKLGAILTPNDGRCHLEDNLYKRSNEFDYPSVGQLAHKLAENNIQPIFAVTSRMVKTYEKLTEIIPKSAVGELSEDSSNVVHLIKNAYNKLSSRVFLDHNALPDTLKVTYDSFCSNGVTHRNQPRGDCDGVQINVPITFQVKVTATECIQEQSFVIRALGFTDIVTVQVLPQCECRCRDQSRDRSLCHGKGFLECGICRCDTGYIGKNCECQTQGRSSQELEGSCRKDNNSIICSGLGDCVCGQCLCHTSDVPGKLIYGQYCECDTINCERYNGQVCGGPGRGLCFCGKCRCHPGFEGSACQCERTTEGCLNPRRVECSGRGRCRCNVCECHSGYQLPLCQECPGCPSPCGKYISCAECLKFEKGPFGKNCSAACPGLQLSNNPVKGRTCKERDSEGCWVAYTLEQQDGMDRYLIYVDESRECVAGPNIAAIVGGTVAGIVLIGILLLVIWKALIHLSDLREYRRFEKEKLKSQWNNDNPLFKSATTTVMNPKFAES

[3] = target: T1, Integrin alpha-L; assay: Inhibition of intercellular adhesion molecule-1 (ICAM-1) binding to recombinant LFA-1, range(6-13)
[4] = target: T2, Intercellular adhesion molecule (ICAM-1), Integrin alpha-L/beta-2
[5] = target: T3, Intercellular adhesion molecule (ICAM-1), Integrin alpha-L/beta-2 (Homo sapiens) (UniProt P20701+P05362+P05107); conditions: Rattus norvegicus
[6] = tested on: Mus musculus; assay: Inhibition of allergen induced total cell influx in mouse lung at 10 mg/kg; format: functional
[7] = tested on: Mus musculus; assay: Inhibition of allergen induced neutrophil influx in mouse lung at 10 mg/kg; format: functional
[8] = tested on: Mus musculus; assay: Inhibition of allergen induced neutrophil influx in mouse lung at 3 mg/kg; format: functional
[9] = tested on: Mus musculus; assay: Inhibition of allergen induced total cell influx in mouse lung at 1 mg/kg; format: functional
[10] = tested on: Mus musculus; assay: Inhibition of allergen induced neutrophil influx in mouse lung at 1 mg/kg; format: functional
[11] = target: T3, Intercellular adhesion molecule (ICAM-1), Integrin alpha-L/beta-2 (Homo sapiens); conditions: Rattus norvegicus; remark: listed apart in the source
[12] = tested on: Mus musculus; assay: Inhibition of allergen induced total cell influx in mouse lung at 3 mg/kg; format: functional
[13] = target: T1, Integrin alpha-L
[14] = target: T1, Integrin alpha-L; assay: Inhibition of intercellular adhesion molecule-1 (ICAM-1) binding to recombinant LFA-1, range(100-110)
[15] = target: T2, Intercellular adhesion molecule (ICAM-1), Integrin alpha-L/beta-2; assay: Inhibition of LFA-1 mediated JY-8 cell adhesion to ICAM-1, range (2-30); format: functional, cell-based
[16] = target: T1, Integrin alpha-L; assay: Inhibition of intercellular adhesion molecule-1 (ICAM-1) binding to recombinant LFA-1, range (6-12)
[17] = target: T1, Integrin alpha-L; assay: Inhibition of intercellular adhesion molecule-1 (ICAM-1) binding to recombinant LFA-1, range (6-10)
[18] = target: T2, Intercellular adhesion molecule (ICAM-1), Integrin alpha-L/beta-2; assay: Inhibition of LFA-1 mediated JY-8 cell adhesion to ICAM-1, range (3-10); format: functional, cell-based
[19] = target: T1, Integrin alpha-L; assay: Inhibition of intercellular adhesion molecule-1 (ICAM-1) binding to recombinant LFA-1
[20] = target: T1, Integrin alpha-L; assay: Inhibition of intercellular adhesion molecule-1 (ICAM-1) binding to recombinant LFA-1, range(120-140)
[21] = target: T1, Integrin alpha-L; assay: Inhibition of intercellular adhesion molecule-1 (ICAM-1) binding to recombinant LFA-1, range (6-19)
[22] = target: T2, Intercellular adhesion molecule (ICAM-1), Integrin alpha-L/beta-2; assay: Inhibition of LFA-1 mediated JY-8 cell adhesion to ICAM-1, range (3-18); format: functional, cell-based
[23] = target: T1, Integrin alpha-L; assay: Inhibition of intercellular adhesion molecule-1 (ICAM-1) binding to recombinant LFA-1, range (2500-11500)
[24] = target: T1, Integrin alpha-L; assay: Inhibition of intercellular adhesion molecule-1 (ICAM-1) binding to recombinant LFA-1, range(40-60)
[25] = target: T1, Integrin alpha-L; assay: Inhibition of intercellular adhesion molecule-1 (ICAM-1) binding to recombinant LFA-1, range (3700-3800)
[26] = target: T2, Intercellular adhesion molecule (ICAM-1), Integrin alpha-L/beta-2; assay: Inhibition of LFA-1 mediated JY-8 cell adhesion to ICAM-1, range (2-9); format: functional, cell-based
[27] = target: T1, Integrin alpha-L; assay: Inhibition of intercellular adhesion molecule-1 (ICAM-1) binding to recombinant LFA-1, range (5-8)
[28] = target: T1, Integrin alpha-L; assay: Inhibition of intercellular adhesion molecule-1 (ICAM-1) binding to recombinant LFA-1, range(100-200)
[29] = target: T2, Intercellular adhesion molecule (ICAM-1), Integrin alpha-L/beta-2; assay: Inhibition of LFA-1 mediated JY-8 cell adhesion to ICAM-1, range (100-600); format: functional, cell-based

Structure (SMILES): COc1ccccc1Sc1ccc(/C=C/C(=O)N2CCC(C(=O)O)CC2)c(Cl)c1
- IC50 [1]: 1.4 µM

Structure (SMILES): COc1ccccc1Sc1ccc(/C=C/C(=O)N2CCOCC2)c(Cl)c1Cl
- IC50 [2]: 0.006 µM
- IC50 [3]: 0.01 µM

Structure (SMILES): Cn1ccc2cc(Sc3ccc(/C=C/C(=O)N4CCC(C(=O)O)CC4)c(Cl)c3Cl)ccc21
- IC50 [4]: 0.004 µM
- Polymorphonuclear cells [5]: 7.48
- Total cells [6]: 189 number ul-1
- Neutrophils [7]: 30%
- Neutrophils [8]: 31%
- Total cells [9]: 291 number ul-1
- Neutrophils [10]: 36%
- Polymorphonuclear cells [11]: 4.88
- Total cells [12]: 147 number ul-1
- IC50 [13]: 0.006 µM

Structure (SMILES): CC(=O)N1CCN(C(=O)/C=C/c2ccc(Sc3cccc(Cl)c3Cl)c([N+](=O)[O-])c2)CC1
- IC50 [14]: 0.105 µM

Structure (SMILES): COc1ccccc1Sc1ccc(/C=C/C(=O)N2CCC(C(=O)O)CC2)c(Cl)c1Cl
- IC50 [15]: 0.008 µM
- IC50 [16]: 0.008 µM

Structure (SMILES): COc1ccccc1Sc1ccc(/C=C/C(=O)N2CCOCC2)c(C(F)(F)F)c1Cl
- IC50 [17]: 0.008 µM
- IC50 [18]: 0.005 µM

Structure (SMILES): COc1ccccc1Sc1cc(Cl)c(/C=C/C(=O)N2CCC(C(=O)O)CC2)cc1Cl
- IC50 [19]: > 20 µM

Structure (SMILES): CC(=O)N1CCN(C(=O)/C=C/c2ccc(Sc3ccc4c(c3)OCCO4)c([N+](=O)[O-])c2)CC1
- IC50 [20]: 0.139 µM

Structure (SMILES): O=C(/C=C/c1ccc(Sc2cccc(Cl)c2Cl)cc1)N1CCOCC1
- IC50 [19]: 9.1 µM

Structure (SMILES): COc1ccccc1Sc1cc(C)c(/C=C/C(=O)N2CCC(C(=O)O)CC2)cc1Cl
- IC50 [19]: > 20 µM

Structure (SMILES): CC(C)c1ccccc1Sc1ccc(/C=C/C(=O)N2CCC(C(=O)O)CC2)c(Cl)c1Cl
- IC50 [21]: 0.01 µM
- IC50 [22]: 0.006 µM

Structure (SMILES): COc1ccccc1Sc1ccc(/C=C/C(=O)N2CCN(C(C)=O)CC2)c(F)c1
- IC50 [23]: 3.9 µM

Structure (SMILES): O=C(O)C1CCN(C(=O)/C=C/c2ccc(Sc3ccc4c(c3)OCCO4)c(C(F)(F)F)c2)CC1
- IC50 [24]: 0.05 µM

Structure (SMILES): O=C(O)C1CCN(C(=O)/C=C/c2cc(Cl)c(Sc3ccc4c(c3)OCCO4)c(C(F)(F)F)c2)CC1
- IC50 [19]: > 20 µM

Structure (SMILES): CC(=O)N1CCN(C(=O)/C=C/c2ccc(Sc3cccc(Cl)c3Cl)c(S(=O)(=O)N(C)C)c2)CC1
- IC50 [25]: 3.75 µM

Structure (SMILES): COc1ccccc1Sc1ccc(/C=C/C(=O)N2CCC(C(=O)O)CC2)c(C(F)(F)F)c1Cl
- IC50 [26]: 0.004 µM
- IC50 [27]: 0.006 µM

Structure (SMILES): CC(=O)N1CCN(C(=O)/C=C/c2ccc(Sc3ccc(Cl)cc3Cl)c(Cl)c2)CC1
- IC50 [28]: 0.14 µM
- IC50 [29]: 0.13 µM

Structure (SMILES): COc1ccccc1Sc1ccc(/C=C/C(=O)N2CCC(C(=O)O)CC2)c(C)c1
- IC50 [19]: > 20 µM
